{"source": "paper PMC6452685", "about": "“Lysyl-tRNA synthetase as a drug target in malaria and cryptosporidiosis” (Proceedings of the National Academy of Sciences of the …, 2019)", "key": {"[1]": {"tested_on": "C. parvum", "assay": "Anti-Cryptosporidium in vivo efficacy in NOD SCID gamma mice", "set-up": "species or system mouse", "description": "INF-γ–knockout mice ([28], [29]) were infected orally with Nluc-expressing transgenic C. parvum oocysts. Treatment started upon patency 4 d postinfection (p.i.), and mice were treated orally once a day for 7 d. Infection was monitored daily by luciferase measurements in pooled feces of the entire cage. Mice were followed for 3 wk after completion of drug treatment. […] NOD SCID gamma mice were infected with C. parvum oocysts ([26]). Treatment started 7 d p.i., and mice were treated orally once a day for 7 d. The study was run with four mice per cage; infection was monitored by quantitative PCR on day eight for individual mice, and data are shown as oocysts per milligram of feces. […]\nData analysis was performed using GraphPad Prism 7.0 (GraphPad S oftware), Excel 2016 (Microsoft ) and R free so ftware (https://www.r-project.org) for data pl otti ng and s tati s ti cal model li ng. […]\nThe Nl uc-C. parvum IFN-γ-knockout (IFN-γ KO) m ouse in vivo experiments were run in acco rdance with the publ i s hed method (22). Briefly, female C57BL/ 6 IFN-γ KO mi ce, aged 6–8 weeks were infected with 10,000 C. parvum UG A1 Nl uc (Vi naya k et al 2015, Natu re) tra ns g eni c oocys ts . Mi ce (n=5 per g rou p) w ere admi ni s t ered 20 mg /k g of comp o und 5 fo rmul ated i n 3% et hanol , 7% Tw een 8 0, 90 % saline or t he f ormul at i on (v ehi cl e) by o ral g av ag e. […]"}, "[2]": {"target": "PfKRS1 (Plasmodium falciparum, UniProt Q8IDJ8)", "sequence (Q8IDJ8 entry or part of it)": "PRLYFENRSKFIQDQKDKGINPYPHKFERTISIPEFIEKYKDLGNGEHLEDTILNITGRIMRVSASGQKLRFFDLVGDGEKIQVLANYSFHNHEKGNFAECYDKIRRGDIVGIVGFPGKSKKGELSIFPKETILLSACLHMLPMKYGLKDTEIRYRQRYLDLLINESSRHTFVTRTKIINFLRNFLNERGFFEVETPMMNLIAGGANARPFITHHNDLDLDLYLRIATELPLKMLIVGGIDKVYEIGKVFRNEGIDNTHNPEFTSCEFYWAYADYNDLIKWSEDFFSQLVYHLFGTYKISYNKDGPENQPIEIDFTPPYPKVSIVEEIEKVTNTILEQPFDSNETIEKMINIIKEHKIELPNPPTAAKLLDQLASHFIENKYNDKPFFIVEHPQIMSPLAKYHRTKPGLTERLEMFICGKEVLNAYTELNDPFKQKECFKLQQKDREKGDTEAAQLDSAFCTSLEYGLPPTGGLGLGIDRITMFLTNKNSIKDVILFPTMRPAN", "assay": "PfKRS1 mode of inhibition, pyrophosphate generation (EnzChek)", "format": "biochemical", "set-up": "recombinant PfKRS1 (77–583 and 80–583); His (N); MBP (with TEV site) (N); made in house; host or cells: E. coli BL21 (DE3); codon-optimised gene from Genscript", "description": "SUPPLEMENTARY INFORMATION glycerol pH 7.5/protease inhibitor tablets/DNAase) was added and the pellets for defrosted at room temperature for approximately 10 min. The slurry was then passed through a Cell Disrupter (Constant Systems) set at 30 KPSI to l yse the cel ls. The s ample w as t hen cent ri fug ed at 40, 000g for 2 0 mi n. The supernatant was then filtered using syringe filters to 0.45 µm. The s upernat ant w as l oaded ont o a 5 ml Hi Trap Ni HP col umn that had been eq ui l i brated wi th Buffer A (25 m M HEP ES /5 00 m M NaC l /2 0 mM Imi dazol e/2 mM DTT/10% Gl ycerol pH 7.5) at 5 ml /mi n usi ng an AKTA Pure system. Once l oaded the column was washed with 10 column volumes buffer A. A 5% step of Buf fer B (25 mM HEPES /50 0 mM NaC l /500 mM I mi daz ol e/2mM D TT/ 10% Glycerol pH 7.5) was then used to wash off His rich contami nati ng protei ns . […]\n2.5 PfKR S1, CpKRS and HsKR S Pyr oph osphate Ge ne r ation EnzChe kTM Ki ne tic M e asur e me nts Steady-state kinetic measurements were conduc ted at room temperature using a PheraStar plate re a de r (BM G ). End-poi nt s fo r t he ami noacy l at i on react i on of PfKRS1, which produces inorganic py roph os phat e t hat i s conv ert ed t o t w o mol ecules of i norg ani c phos phat e us i ng a py rophos phat as e enzyme, were measured usi ng the EnzChek™ Pho sphate Assay Ki t, whi ch gives an absorbance read - out at 36 0 nm. […] The reaction was carried out for 6 h (PfKRS1 an d CpKRS) or 1 2 h (HsKRS) at ro om temperature and then the absorbance o f each wel l was read at 360 nm. The s ubs t rat es Km values were determined by varying the concentration of one of the substrates at saturati ng concentrati on of the othe r. […]\nwhere V is the maximal velocity (here expressed as µM/min of phosphate production), S is the substrate concentration a nd K is the Michaelis constant for the substrate (Km). […]"}}}
{"smiles": "O=C(NCC1(O)CCC(F)(F)CC1)c1cc(=O)c2cc(F)ccc2o1", "note": "[Compound 5]", "values": [{"measurement": "reduction in parasite levels compared with control", "setting": "[1]; NOD SCID gamma mouse, 20 mg/kg orally once a day for 7 d, day 8", "result": 100, "unit": "fold"}, {"measurement": "reduction of parasite burden", "setting": "[1]; dosed orally for 7 d, NOD SCID gamma mouse model", "result": "two orders of magnitude"}, {"measurement": "Ki, linear uncompetitive inhibition vs. L-lysine", "setting": "[2]; EnzChek, saturating ATP", "result": 212, "unit": "nM"}, {"measurement": "Ki", "setting": "[2]; EnzChek, saturating L-lysine, read-out: Ki, linear competitive inhibition vs. ATP", "result": 32, "unit": "nM"}, {"measurement": "IC50", "setting": "[2]; saturating concentrations of both substrates", "result": 210, "unit": "nM"}]}
